Converted amounts (≈) assume the structure as drawn. Values belong to the compound of their own block, whether it stands above or below them.
Key:
Experiment in all cases: ≥ marks a high value that may be exact or a test limit, other limits are often not marked, values filed in µg/mL are converted to µM
[1] = tested on: Escherichia coli ATCC 11219
[2] = tested on: Klebsiella pneumoniae ATCC 10031
[3] = tested on: Pseudomonas aeruginosa ATCC 13388
[4] = tested on: Salmonella enterica subsp. enterica serovar Typhimurium ATCC 14028
[5] = tested on: Staphylococcus aureus ATCC 6538
[6] = tested on: Escherichia coli AB94012
[7] = tested on: Escherichia coli ATCC 25922
[8] = tested on: Pseudomonas aeruginosa AB93066
[9] = tested on: Pseudomonas aeruginosa ATCC 9027
[10] = tested on: Staphylococcus aureus AB94004
[11] = tested on: Staphylococcus aureus ATCC 25923
[12] = tested on: Staphylococcus aureus P1374
[13] = tested on: Staphylococcus aureus P1381
[14] = tested on: Batrachochytrium dendrobatidis JEL-197
[15] = tested on: Enterobacter cloacae 218R
[16] = tested on: Enterococcus faecalis ATCC 29212
[17] = tested on: Enterococcus faecalis W61950
[18] = tested on: Enterococcus faecalis f43559
[19] = tested on: Enterococcus faecium mic80
[20] = tested on: Enterococcus faecium t62764
[21] = tested on: Escherichia coli ESBL 63103
[22] = tested on: Escherichia coli ESBL 64771
[23] = tested on: Klebsiella pneumoniae ESBL 61962
[24] = tested on: Klebsiella pneumoniae ESBL 63575
[25] = tested on: Pseudomonas aeruginosa 198
[26] = tested on: Pseudomonas aeruginosa 213
[27] = tested on: Pseudomonas aeruginosa 9
[28] = tested on: Pseudomonas aeruginosa H1027
[29] = tested on: Pseudomonas aeruginosa H1030
[30] = tested on: Pseudomonas aeruginosa LES400
[31] = tested on: Pseudomonas aeruginosa PAO1 H103
[32] = tested on: Staphylococcus aureus C623
[33] = tested on: Stenotrophomonas maltophilia ATCC 13637

MIC [1]: 2.2 µM (≈ 3.01 µg/mL) | MIC [2]: 3 µM (≈ 4.1 µg/mL) | MIC [3]: 10 µM (≈ 13.7 µg/mL) | MIC [4]: 3 µM (≈ 4.1 µg/mL) | MIC [5]: 10 µM (≈ 13.7 µg/mL)
SMILES: CC[C@H](C)[C@H](NC(=O)CN)C(=O)N[C@@H](Cc1cnc[nH]1)C(=O)N[C@@H](CCCN=C(N)N)C(=O)N[C@H](C(=O)N[C@@H](CC(C)C)C(=O)N[C@@H](CCCCN)C(=O)N[C@@H](Cc1ccc(O)cc1)C(=O)NCC(=O)N[C@@H](CCCCN)C(=O)N1CCC[C@H]1C(=O)N[C@@H](CO)C(N)=O)[C@@H](C)CC [GIHRILKYGKPS]

MIC [6]: 15.5 µM (≈ 25 µg/mL) | MIC [7]: 30.9 µM (≈ 50 µg/mL) | MIC [8]: 30.9 µM (≈ 50 µg/mL) | MIC [9]: 30.9 µM (≈ 50 µg/mL) | MIC [10]: 3.87 µM (≈ 6.25 µg/mL) | MIC [11]: 7.73 µM (≈ 12.5 µg/mL) | MIC [5]: 7.73 µM (≈ 12.5 µg/mL) | MIC [12]: 3.87 µM (≈ 6.25 µg/mL) | MIC [13]: 3.87 µM (≈ 6.25 µg/mL)
SMILES: CC[C@H](C)[C@H](NC(=O)[C@H](CO)NC(=O)[C@H](CCCCN)NC(=O)[C@@H](NC(=O)CNC(=O)[C@H](CCCCN)NC(=O)[C@H](Cc1c[nH]c2ccccc12)NC(=O)[C@H](CC(C)C)NC(=O)[C@H](CCCCN)NC(=O)CNC(=O)[C@H](CC(C)C)NC(=O)[C@@H](NC(=O)[C@@H](N)CCCCN)[C@@H](C)CC)C(C)C)C(=O)N[C@@H](Cc1ccccc1)C(N)=O [KILGKLWKGVKSIF]

MIC [14]: 12.5 µM (≈ 31.6 µg/mL)
SMILES: CC[C@H](C)[C@H](NC(=O)[C@H](CC(C)C)NC(=O)[C@H](CCCCN)NC(=O)[C@@H]1CCCN1C(=O)[C@@H](NC(=O)[C@H](CC(C)C)NC(=O)[C@H](CC(N)=O)NC(=O)[C@H](C)NC(=O)[C@H](C)NC(=O)[C@H](CC(C)C)NC(=O)CNC(=O)[C@H](C)NC(=O)[C@H](CC(C)C)NC(=O)[C@@H](NC(=O)[C@@H]1CCCN1C(=O)[C@H](CC(C)C)NC(=O)[C@@H](N)Cc1ccccc1)[C@@H](C)CC)C(C)C)C(=O)N[C@H]1CSSC[C@@H](C(=O)O)NC(=O)[C@H](CCCCN)NC(=O)[C@H](CCCCN)NC(=O)[C@H]([C@@H](C)O)NC(=O)[C@H]([C@@H](C)CC)NC(=O)[C@H](CO)NC1=O [FLPILAGLAANLVPKLICSITKKC]

MIC [1]: 5 µM (≈ 6.63 µg/mL) | MIC [2]: 10 µM (≈ 13.3 µg/mL) | MIC [3]: 30 µM (≈ 39.8 µg/mL) | MIC [4]: 20 µM (≈ 26.5 µg/mL) | MIC [5]: 10 µM (≈ 13.3 µg/mL)
SMILES: CC[C@H](C)[C@H](NC(=O)CN)C(=O)N[C@@H](Cc1cnc[nH]1)C(=O)N[C@@H](CC(=O)O)C(=O)N[C@H](C(=O)N[C@@H](CC(C)C)C(=O)N[C@@H](CCCCN)C(=O)N[C@@H](Cc1ccc(O)cc1)C(=O)NCC(=O)N[C@@H](CCCCN)C(=O)N1CCC[C@H]1C(=O)N[C@@H](CO)C(N)=O)[C@@H](C)CC [GIHDILKYGKPS]

MIC [15]: 3.06 µM (≈ 4.3 µg/mL) | MIC [16]: 12.1 µM (≈ 17 µg/mL) | MIC [17]: ≥ 49.1 µM | MIC [18]: ≥ 49.1 µM | MIC [19]: 12.1 µM (≈ 17 µg/mL) | MIC [20]: 3.06 µM (≈ 4.3 µg/mL) | MIC [21]: 12.1 µM (≈ 17 µg/mL) | MIC [22]: 6.05 µM (≈ 8.5 µg/mL) | MIC [23]: ≥ 98.2 µM | MIC [24]: ≥ 49.1 µM | MIC [25]: 12.1 µM (≈ 17 µg/mL) | MIC [26]: 24.2 µM (≈ 34 µg/mL) | MIC [27]: 12.1 µM (≈ 17 µg/mL) | MIC [28]: 1.57 µM (≈ 2.2 µg/mL) | MIC [29]: 24.2 µM (≈ 34 µg/mL) | MIC [30]: 6.05 µM (≈ 8.5 µg/mL) | MIC [31]: 6.05 µM (≈ 8.5 µg/mL) | MIC [11]: 1.57 µM (≈ 2.2 µg/mL) | MIC [32]: 1.57 µM (≈ 2.2 µg/mL) | MIC [33]: 0.782 µM (≈ 1.1 µg/mL)
SMILES: CC[C@H](C)[C@H](NC(=O)[C@H](CCCCN)NC(=O)[C@H](Cc1c[nH]c2ccccc12)NC(=O)[C@@H](N)CCCCN)C(=O)N[C@@H](Cc1ccccc1)C(=O)N[C@@H](CCCN=C(N)N)C(=O)N[C@@H](CCCN=C(N)N)C(=O)N[C@@H](Cc1c[nH]c2ccccc12)C(=O)N[C@@H](Cc1c[nH]c2ccccc12)C(=O)O [KWKIFRRWW]
